The assay addresses T1, ADRB3 (Homo sapiens, UniProt P13945).
T1 construct: purchased Promega (in-house HiBiT-GPCR construct library, NanoBRET)
Kind of assay: NanoBRET screen HiBiT-ADRB3 in HEK293. The assay is classed as binding. On the procedure:
Each tracer candidate was screened across the entire library of HiBiT-GPCR constructs using NanoBRET as the detection modality. As depicted in Figure 4A, the specificity of interactions was evaluated through decrease in BRET due to competitive displacement of a bound tracer by excess parental compound. Each tracer was analyzed for binding to each HiBiT-GPCR fusion in the absence and in the presence of competing parental compound. Briefly, HEK293 cells were transfected with HiBiT-GPCR constructs diluted into promoterless DNA to reduce expression and maximize translocation to the cell surface. Each tracer candidate was then screened at concentrations of 1 μM and 0.1 μM across cells expressing these fusions. Cells were treated for 1.5 h with tracer either alone or in the presence of 20 μM competing parental compound (i.e., control). BRET was measured upon addition of purified LgBiT and subsequent complementation with HiBiT genetically fused to a GPCR. The specificity of interactions was assessed through a decrease in BRET signal due to competitive displacement of the bound tracer. To further gauge the robustness of these interactions, the fold response over the control (i.e., BRETtracer/BRETcontrol) was calculated. We chose a 1.5-fold response, which translates to ≥7-fold signal over noise as the minimal threshold required to score an interaction as positive.
HiBiT-GPCR DNA constructs were diluted in 10 mM Tris pH 8 to a final concentration of 0.01 μg/μL, arrayed in 96-well plates and stored at −20 °C. For transfection, HEK293 cells were suspended in Opti-MEM (without phenol red) supplemented with 2% fetal bovine serum (Seradigm) and 100 units/mL penicillin–streptomycin (Gibco) at a final concentration of 220,000 cells/mL and dispensed into white 96-well plates at 90 μL/well. Subsequent transfections and screens were carried using an Agilent Bravo Automated Liquid Handling Platform. First, the 96-well HiBiT DNA arrays were diluted 25-fold in Opti-MEM (without serum or phenol red) to a final concentration of 0.0004 μg/μL and 20 μL of the diluted DNAs were transferred into new 96-well plates. Next, promoterless carrier DNA (1 μg/μL) was diluted 25-fold (0.04 μg/μL) and then dispensed into the diluted arrays at 20 μL/well. Following brief mixing, Viafect transfection reagent (Promega) diluted 16-fold into Opti-MEM was dispensed into the plates at 40 μL/well. After mixing by pipetting, plates were incubated for 10 min on the pipetting station deck. The DNA-transfection reagent complexes were then added to plates containing cells. To facilitate the screen, 10 μL of DNA-transfection reagent complexes were added in duplicates to the top 4 and bottom 4 rows, resulting in two identical 48-well arrays per plate. Plates with transfected cells were incubated for 18–20 h at 37 °C/5% CO2. A screen of each tracer across the entire library using two different concentrations requires duplicate plates of transfected cells. Depending on the number of tracers being screened, transfections can be scaled up using the same ratios. The next day, for each tracer, four 20× screening solutions in tracer dilution buffer (Promega) were prepared: two duplicates at final concentration of 20 μM and two duplicates at a final concentration of 2 μM. […] The four resulting solutions were diluted 4-fold in Opti-MEM without serum or phenol red to generate 5× solutions (5 µM and 0.5 µM tracer +/− 100 μM competing compound). To screen the library, a BioTek MultiFlo FX liquid dispenser was used to dispense 22.5 µL of tracer solution to the top 4 rows and 22.5 µL tracer + competing compound solution to the 4 bottom rows. Plates were briefly mixed on an orbital shaker and incubated for 1.5 h at room temperature. […] Plates were briefly mixed on an orbital shaker and incubated for 15 min to allow complementation.
Background: Bioluminescence resonance energy transfer reports proximity on the nanometre scale.

T1 sequence (P13945 whole entry): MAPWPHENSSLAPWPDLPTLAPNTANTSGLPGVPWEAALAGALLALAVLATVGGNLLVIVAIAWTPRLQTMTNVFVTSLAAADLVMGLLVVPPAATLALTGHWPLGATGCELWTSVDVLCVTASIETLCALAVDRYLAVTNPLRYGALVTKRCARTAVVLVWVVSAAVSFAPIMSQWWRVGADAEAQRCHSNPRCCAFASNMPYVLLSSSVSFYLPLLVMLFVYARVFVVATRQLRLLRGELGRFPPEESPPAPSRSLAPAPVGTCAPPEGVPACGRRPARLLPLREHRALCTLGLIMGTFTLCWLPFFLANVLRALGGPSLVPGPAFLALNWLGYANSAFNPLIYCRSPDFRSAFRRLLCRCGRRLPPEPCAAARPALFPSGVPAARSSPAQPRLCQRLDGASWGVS

Take `COc1ccc2c(n1)c(CCNC(C)=O)cn2CCNC(=O)CCc1ccc2n1[B-](F)(F)[N+]1=C(c3ccc[nH]3)C=CC1=C2` [Azamelatonin-1-NB590]: the “NanoBRET Fold Response” value was 1.01 (0.1μM tracer) and 1.06 (1μM tracer).
For the compound `CC(C)N(CC[C@H](c1ccccc1)c1cc(CCNC(=O)c2ccc(CNC(=O)CCc3ccc4n3[B-](F)(F)[N+]3=C(c5ccc[nH]5)C=CC3=C4)cc2)ccc1O)C(C)C` [Tolterodine-BZ-NB590], the “NanoBRET Fold Response” value is 0.93 (ADRB3, tracer 0.1μM) and 0.99 (ADRB3, tracer 1μM).
The like results for `O=C(CCc1ccc2n1[B-](F)(F)[N+]1=C(c3ccc[nH]3)C=CC1=C2)NCCOCCOCCNC(=O)OCCOCCN1CCN(C2=Nc3ccccc3Sc3ccccc32)CC1` [Quetiapine-a-2-NB590] were, in that order, 1.08 and 0.99.
In the case of `Cc1cc2c(s1)Nc1ccccc1N=C2N1CCN(CCCNC(=O)CCOCCOCCOCCOCCNC(=O)CCc2ccc3n2[B-](F)(F)[N+]2=C(c4ccc[nH]4)C=CC2=C3)CC1` [Olanzapine-a-2-NB590], the “NanoBRET Fold Response” value is, setting by setting: (ADRB3, tracer 0.1μM) 1.05; (ADRB3, tracer 1μM) 0.89.
In the case of `O=C(CCc1ccc2n1[B-](F)(F)[N+]1=C(c3ccc[nH]3)C=CC1=C2)NCc1ccc(C(=O)NCCOCCOCCNCC(O)COc2cccc3ccccc23)cc1` (stereo not drawn) [Propranolol-3-NB590], the “NanoBRET Fold Response” value reads like this: (ADRB3, 0.1μM) 1.47; (ADRB3, 1μM) 1.17.
Take `N#CN/C(=N\CCNC(=O)c1ccc(N)cc1)NCCCOc1cccc(CN2CCCCC2)c1` [Aminopotentidine (unmodified)]: the “NanoBRET Fold Response” value runs as follows: (ADRB3, other tracers/Aminopotentidine (unmodified), 0.1μM) 1.02; (ADRB3, other tracers/Aminopotentidine (unmodified), 1μM) 1.10.
`CN1CCN(C2=Nc3cc(Cl)ccc3N(CC(=O)NCCOCCOCCOCCOCCNC(=O)CCc3ccc4n3[B-](F)(F)[N+]3=C(c5ccc[nH]5)C=CC3=C4)c3ccccc32)CC1` [Clozapine-c-2-NB590]: the “NanoBRET Fold Response” value (ADRB3, 0.1μM tracer) was 0.98 and the “NanoBRET Fold Response” value (ADRB3, 1μM tracer) was 0.96.
For `O=C(CCc1ccc2n1[B-](F)(F)[N+]1=C(c3ccc[nH]3)C=CC1=C2)NCc1ccc(C(=O)NCCOCCC(=O)N[C@@H]2CC[C@@]3(O)[C@H]4Cc5ccc(O)c6c5[C@@]3(CCN4CC3CC3)[C@H]2O6)cc1` [Naltrexone-3-NB590], the “NanoBRET Fold Response” value (ADRB3, tracer 0.1μM) amounted to 0.99 and the “NanoBRET Fold Response” value (ADRB3, tracer 1μM) is 1.02.
The like results for `CC(C)N(CC[C@H](c1ccccc1)c1cc(CCNC(=O)CCOCCOCCOCCOCCNC(=O)CCc2ccc3n2[B-](F)(F)[N+]2=C(c4ccc[nH]4)C=CC2=C3)ccc1O)C(C)C` [Tolterodine-2-NB590] were, in that order, 0.97 and 0.97.
Taken in the same sequence, the figures for `Cc1nc2n(c(=O)c1CCN1CCC(c3noc4cc(F)ccc34)CC1)CCCC2OC(=O)NCCOCCOCCOCCOCCNC(=O)CCc1ccc2n1[B-](F)(F)[N+]1=C(c3ccc[nH]3)C=CC1=C2` (stereo not drawn) [Risperidone-2-NB590] were 0.98 and 1.01.
Regarding `O=C(CCOCCOCCOCCOCCNC(=O)CCc1ccc2n1[B-](F)(F)[N+]1=C(c3ccc[nH]3)C=CC1=C2)NCCCN1CCN(C2=Nc3cc(Cl)ccc3Nc3ccccc32)CC1` [Clozapine-a-2-NB590], the “NanoBRET Fold Response” value reads like this: (ADRB3, 0.1μM tracer) 0.97; (ADRB3, 1μM tracer) 0.99.
For the compound `COc1ccc2[nH]c(-c3ccc(CNC(=O)CCOCCOCCOCCOCCNC(=O)CCc4ccc5n4[B-](F)(F)[N+]4=C(c6ccc[nH]6)C=CC4=C5)cc3)c(CCNC(C)=O)c2n1` [AzomelatoninICO9-2-NB590], the “NanoBRET Fold Response” value is, setting by setting: (0.1μM tracer) 1.00; (1μM tracer) 1.11.
Consider `CN1CCN(C2=Nc3cc(Cl)ccc3Nc3ccc(CNC(=O)CCOCCOCCOCCOCCNC(=O)CCc4ccc5n4[B-](F)(F)[N+]4=C(c6ccc[nH]6)C=CC4=C5)cc32)CC1` [Clozapine-b-2-NB590], for which the “NanoBRET Fold Response” value is, setting by setting: (ADRB3, 0.1μM tracer) 1.01; (ADRB3, 1μM tracer) 0.98.
On to `COc1ccccc1N1CCN(CCCCN2C(=O)c3ccc(CNC(=O)CCOCCNC(=O)c4ccc(CNC(=O)CCc5ccc6n5[B-](F)(F)[N+]5=C(c7ccc[nH]7)C=CC5=C6)cc4)cc3C2=O)CC1` [NAN-190-3-NB590], for which the “NanoBRET Fold Response” value (ADRB3, tracer 0.1μM) amounted to 1.03 and the “NanoBRET Fold Response” value (ADRB3, tracer 1μM) is on record as 0.92.
Turning to `N#CN=C(NCCCOc1cccc(CN2CCCCC2)c1)NCCNC(=O)CCOCCOCCOCCOCCNC(=O)CCc1ccc2n1[B-](F)(F)[N+]1=C(c3ccc[nH]3)C=CC1=C2` [Aminopotentidine-2-NB590], the “NanoBRET Fold Response” value (ADRB3, tracer 0.1μM) is reported as 1.00 and the “NanoBRET Fold Response” value (ADRB3, tracer 1μM) is 1.01.
As to `CN(C)CCC=C1c2ccccc2CCc2ccc(C(=O)NCCNC(=O)CCOCCOCCOCCOCCNC(=O)CCc3ccc4n3[B-](F)(F)[N+]3=C(c5ccc[nH]5)C=CC3=C4)cc21` [Amitriptyline-b-2-NB590], the “NanoBRET Fold Response” value is, setting by setting: (tracer at 0.1μM, listed as amitriptyline-b-2-NB590) 1.15; (tracer at 1μM, listed as amitriptyline-b-2-NB590) 1.02.
For `COc1ccccc1N1CCN(CCCCN2C(=O)c3ccc(CNC(=O)CCOCCOCCOCCOCCNC(=O)CCc4ccc5n4[B-](F)(F)[N+]4=C(c6ccc[nH]6)C=CC4=C5)cc3C2=O)CC1` [NAN-190-2-NB590], the “NanoBRET Fold Response” value (ADRB3, tracer 0.1μM) came out at 0.98.
For the compound `O=C(CCOCCOCCOCCOCCNC(=O)CCc1ccc2n1[B-](F)(F)[N+]1=C(c3ccc[nH]3)C=CC1=C2)NCCCN1CCN(C2=Nc3ccccc3Oc3ccc(Cl)cc32)CC1` [Loxapine-a-2-NB590], the “NanoBRET Fold Response” value by setting is: (ADRB3, tracer 0.1μM) 1.01; (ADRB3, tracer 1μM) 0.93.
For the compound `CN(CCC=C1c2ccccc2CCc2ccccc21)C(=O)CCOCCOCCOCCOCCNC(=O)CCc1ccc2n1[B-](F)(F)[N+]1=C(c3ccc[nH]3)C=CC1=C2` [Amitriptyline-e-2-NB590], the “NanoBRET Fold Response” value (tracer at 1μM) amounted to 1.01.
For `CCCn1c(=O)c2[nH]c(-c3ccc(OCC(=O)NCCNC(=O)CCOCCNC(=O)c4ccc(CNC(=O)CCc5ccc6n5[B-](F)(F)[N+]5=C(c7ccc[nH]7)C=CC5=C6)cc4)cc3)nc2n(CCC)c1=O` [XAC-3-NB590], the “NanoBRET Fold Response” value stood at 1.11 (ADRB3, tracer 0.1μM) and 1.05 (ADRB3, tracer 1μM).
Regarding `CN(C)CCC=C1c2ccccc2CCc2ccc(C(=O)NCCNC(=O)CCOCCOCCOCCOCCNC(=O)CCc3ccc4n3[B-](F)(F)[N+]3=C(c5ccc[nH]5)C=CC3=C4)cc21` [Amitriptyline-a-2-NB590], the “NanoBRET Fold Response” value (tracer at 0.1μM) is on record as 0.95 and the “NanoBRET Fold Response” value (tracer at 1μM) is 0.99.
On to `CCOC(=O)c1cc(C#N)c(N2CCC(C(=O)NS(=O)(=O)Cc3ccccc3/C=C/C(=O)NCCNC(=O)CCc3ccc4n3[B-](F)(F)[N+]3=C(c5ccc[nH]5)C=CC3=C4)CC2)nc1C` [AZD1283-1-NB590], for which the “NanoBRET Fold Response” value is, setting by setting: (ADRB3, 0.1μM) 1.09; (ADRB3, 1μM) 1.04.
